Paper PMC4764977, “AZD8797 is an allosteric non-competitive modulator of the human CX3CR1 receptor” (Biochemical Journal, 2016)

Tests used:
[1] = molecular target: T1, CX3CR1 (human whole blood leucocytes) (Homo sapiens, UniProt P49238); assay: Cellix flow adhesion of hWB leucocytes to full-length CX3CL1; assay type: cell-based; conditions: flow 2.25 dyn·cm^−2, 60 min pre-incubation, n=2, read-out: IC50, prevention of capture (adhesion) of human blood leucocytes to CX3CL1
T1 construct: hWB with heparin as anti-coagulant was collected from healthy donors; from tissue; host or cells: human whole blood leucocytes (healthy volunteers)
T1 sequence (P49238 1-355): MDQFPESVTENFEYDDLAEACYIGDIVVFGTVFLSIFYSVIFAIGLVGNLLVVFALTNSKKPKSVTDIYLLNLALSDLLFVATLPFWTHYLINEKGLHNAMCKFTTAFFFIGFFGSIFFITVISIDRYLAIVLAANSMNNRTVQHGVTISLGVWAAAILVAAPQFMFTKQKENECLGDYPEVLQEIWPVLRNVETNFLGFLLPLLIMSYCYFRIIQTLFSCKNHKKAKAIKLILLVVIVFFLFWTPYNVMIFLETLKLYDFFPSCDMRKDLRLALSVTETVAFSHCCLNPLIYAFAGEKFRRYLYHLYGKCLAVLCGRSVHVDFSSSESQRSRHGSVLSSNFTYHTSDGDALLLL
Method: Adhesion of a human B-lymphocyte cell line (RPMI-8226) or hWB leucocytes to full-length human CX3CL1 were monitored using a microfluidics Cellix VenaFlux platform and Vena 8 Biochips (Cellix). Each channel on the Vena 8 chip was coated with anti-His monoclonal antibody (R&D Systems) followed by His-tagged full-length CX3CL1 (R&D Systems) and blocked for non-specific binding (NSB) with BSA.
Cell preparations: RPMI-8226 cells were cultured in RPMI 1640 medium with GlutaMAX and 20% FBS (HyClone, Perbio). Before the experiment, cells were centrifuged at 320 g and resuspended to 5 ×10^6 cells·ml^−1 in RPMI 1640 with 1% FBS. hWB with heparin as anti-coagulant was collected from healthy donors and 5 μM DiOC6 was added. AZD8797 was diluted in a 3-fold series in DMSO starting at 3.3 or 30 μM and pre-incubated with RPMI-8226 cells for 15 min or whole blood for 60 min. DMSO concentration held constant for all AZD8797 concentrations (0.1% for the RPMI-8226 experiments and 0.3% for the whole blood experiments). […]
RPMI-8226 cells in RPMI 1640+1% FBS or whole blood were pumped through the channels at 0.5 dyn·cm^−2 and 2.25 dyn·cm^−2 respectively, for 3 min. Images for quantification were captured using a microscope. Cells adhering to channels were counted and the mean values across five images in each channel were used for calculating the concentration–response curves.

CX3CR1 [2] = molecular target: T2, CX3CR1 (Homo sapiens, UniProt P49238); assay: [35S]GTPγS accumulation assay, CHO-hCX3CR1 membranes; assay type: biochemical; set-up: host or cells: CHO-K1
T2 sequence (P49238 1-355): T1 sequence (P49238 1-355)
Method: Adherent CHO-K1 cells stably expressing human CX3CR1 (CHO-hCX3CR1) were grown in F12 medium with GlutaMAX, 10% FBS (Sigma–Aldrich) and 400 μg·ml^−1 geneticin and harvested at 80% confluency. Cells were washed in PBS and lysed with an Ultra-Turrax Homogenizer in 50 mM Tris/HCl (pH 7.4) and 1 mM EDTA with Complete™ protease inhibitor (Roche). After centrifugation at 1000 g for 10 min, membranes were collected by ultracentrifugation at 100000 g for 45 min at 4°C. The membranes were resuspended in 10 mM Tris/HCl (pH 7.4), 1 mM EDTA and 10% sucrose, divided into aliquots, frozen in liquid nitrogen and stored in −80°C. Protein concentration was determined using the BCA method (Thermo Fisher Scientific).
0.56 μCi·ml^−1 [^35S]GTPγS and EC80 of CX3CL1 were then added. The plate was incubated at 30°C for 1 h and subsequently unbound [^35S]GTPγS was separated from bound by vacuum filtration to a Printed Filtermat B (PerkinElmer) using a Skatron Micro96 harvester and dried at 50°C for 1 h. The filters were soaked with a melt-on scintillator sheet (MeltiLex, PerkinElmer), sealed using a MeltiLex heat sealer and measured in a MicroBeta Trilux reader (PerkinElmer).

CX3CR1 [3] = molecular target: T2, CX3CR1; assay: PathHunter β-arrestin recruitment assay, CHO-K1 CX3CR1 β-arrestin cell line; assay type: cell-based; set-up: host or cells: CHO-K1
Method: β-Arrestin recruitment was measured using the PathHunter™ enzyme fragment complementation assay from DiscoveRx and carried out according to the manufacturer's instructions. In short, 3500 cells per well in Opti-MEM were incubated together with different concentrations of AZD8797 and CX3CL1 in a 384-well plate. After 90 min of incubation at 37°C, detection reagent was added and incubation continued for 1 h at room temperature, before reading the plate with a Victor^2 luminescence plate reader (PerkinElmer). As in the [^35S]GTPγS binding assay, the final DMSO concentration was held constant at 1%.

CX3CR1 [4] = molecular target: T2, CX3CR1; assay: [3H]AZD8797 competition binding, CHO-hCX3CR1 membranes; set-up: host or cells: CHO-K1; conditions: 2 nM [3H]AZD8797, n=7
Method: Adherent CHO-K1 cells stably expressing human CX3CR1 (CHO-hCX3CR1) were grown in F12 medium with GlutaMAX, 10% FBS (Sigma–Aldrich) and 400 μg·ml^−1 geneticin and harvested at 80% confluency. Cells were washed in PBS and lysed with an Ultra-Turrax Homogenizer in 50 mM Tris/HCl (pH 7.4) and 1 mM EDTA with Complete™ protease inhibitor (Roche). […] Protein concentration was determined using the BCA method (Thermo Fisher Scientific). […] The filter plate was washed in ice-cold 25 mM HEPES (pH 7.4), 5 mM MgCl2, 1 mM CaCl2 and 500 mM NaCl and dried at 50°C for 1 h. Scintillation cocktail, Optiphase Supermix (PerkinElmer) was added to each well and the radioactivity was measured using a MicroBeta Trilux reader (PerkinElmer). All analysis and calculations were performed using GraphPad Prism 6.01. Functional and competition binding data were analysed using non-linear regression and fitted to a sigmoidal dose-response with variable slope according to the following equation: […] where Y is the amount of radioligand bound (cpm) or functional effect, Top denotes maximal asymptotic binding, and Bottom denotes the minimal asymptotic binding. XC50 is either the EC50 or the IC50 value, and X is the logarithm of the test compound concentration. Ki values were calculated from IC50 values using the Cheng–Prusoff equation: […]

CX3CR1 [5] = molecular target: T2, CX3CR1; assay: 125I-CX3CL1 kinetic radioligand binding, CHO-hCX3CR1 membranes; set-up: host or cells: CHO-K1
Method: Incubation times ranged from 2.5 min to 4 h. For the association experiments, the radioligand data were fitted to the following monophasic exponential association equation and the association rate (kon) was calculated using the added amounts of radioligand (L) and dissociation rate (koff) as constants. koff was measured in separate dissociation experiments. The dissociation data were fitted to the monophasic exponential decay equation: where Y0 is the binding (cpm) at time zero, X is the time and NS is the (non-specific) binding at infinite times. […] Multiple compound dissociation data were fitted to the biphasic exponential decay equation: […]

[6] = in presence of 10 μM AZD8797 + 100 nM CX3CL1, two-phase model, n=3

## CC(C)C[C@H](CO)Nc1nc(S[C@@H](C)c2ccccc2)nc2nc(N)sc12 [AZD8797]
[1]
  IC50: 0.33 µM
CX3CR1 [2]; compound alone, results not shown
  Agonistic effect in [35S]GTPγS accumulation: No agonistic effect
CX3CR1 [2]; response from 2 nM CX3CL1 (EC80), n > 24, read-out: IC50, inhibition of CX3CL1-induced [35S]GTPγS accumulation
  IC50: 0.34 µM
CX3CR1 [3]; 16 and 140 nM AZD8797, efficacy enhanced, not potency
  Increase of CX3CL1 efficacy in β-arrestin recruitment: ~2 fold
CX3CR1 [3]; AZD8797 alone
  Effect on β-arrestin recruitment, compound alone: no effect
CX3CR1 [3]; higher concentrations of AZD8797
  CX3CL1-induced β-arrestin recruitment at higher concentrations: almost abolished
CX3CR1 [4]
  Ki: 0.0073 µM
CX3CR1 [5]; [6]
  k1off of 125I-CX3CL1 dissociation (fast first phase): 0.45 min⁻¹
  k2off of 125I-CX3CL1 dissociation (second slower phase): 0.0060 min⁻¹
CX3CR1 [5]; results not shown
  Effect on 125I-CX3CL1 association rate (kon): no effect
  Effect on maximal binding of 125I-CX3CL1 in association experiments: decreased
